Experimental data as given in patent US6660742B2, “Compositions and methods of the use thereof achiral analogues of CC-1065 and the duocarmycins” (priority 2000, dated 2003).
Values joined by “and” are separate entries in the source; they are usually repeats but may differ in a detail not shown here. Equal values may be shown once. Read-outs that look alike come from different tables or passages of the source.

How the values were obtained:
NCI-H226 = test: NCI screen, NCI-H226 (Non-Small Cell Lung Cancer); format: cell-based, human
Method: (§1) The compounds of this invention were also tested against the panel of 60 human cancer cell lines at the National Cancer Institute, Bethesda, Md. […] The cytrotoxicity studies were conducted using a 48 hour exposure, and measuring the optical density of sulforhodamide B-derived color.

IGROV1 = test: NCI screen, IGROV1 (Ovarian Cancer); format: cell-based, human
Method: as §1

SR = test: NCI screen, SR (Leukemia)
Method: as §1

K-562 = test: NCI screen, K-562 (Leukemia)
Method: as §1

UACC-62 = test: NCI screen, UACC-62 (Melanoma)
Method: as §1

CCRF-CEM = test: NCI screen, CCRF-CEM (Leukemia)
Method: as §1

HT29 = test: NCI screen, HT29 (Colon Cancer)
Method: as §1

SNB-19 = test: NCI screen, SNB-19 (CNS Cancer)
Method: as §1

LOX IMVI = test: NCI screen, LOX IMVI (Melanoma)
Method: The compounds of this invention were also tested against the panel of 60 human cancer cell lines at the National Cancer Institute, Bethesda, Md. (44). The cytrotoxicity studies were conducted using a 48 hour exposure, and measuring the optical density of sulforhodamide B-derived color.

SN12C = test: NCI screen, SN12C (Renal Cancer)
Method: as §1

TK-10 = test: NCI screen, TK-10 (Renal Cancer)
Method: as §1

UO-31 = test: NCI screen, UO-31 (Renal Cancer)
Method: as §1

MCF7 = test: NCI screen, MCF7 (Breast Cancer)
Method: as §1

CAKI-1 = test: NCI screen, CAKI-1 (Renal Cancer)
Method: as §1

MDA-N = test: NCI screen, MDA-N (Breast Cancer)
Method: as §1

RXF 393 = test: NCI screen, RXF 393 (Renal Cancer)
Method: as §1

PC-3 = test: NCI screen, PC-3 (Prostrate Cancer)
Method: as §1

OVCAR-3 = test: NCI screen, OVCAR-3 (Ovarian Cancer)
Method: as §1

HOP-62 = test: NCI screen, HOP-62 (Non-Small Cell Lung Cancer)
Method: as §1

O=C(Nc1cc(O)ccc1CCCl)c1cc2cc(NC(=O)c3cc4ccccc4o3)ccc2[nH]1 [Compound 1, 4-(2-Chloroethyl)-3-[5-(5-benzofuran-2-carboxamido)indole-2-carboxamido]phenol]
GI50 (NCI-H226): 4.09 µM
TGI (NCI-H226): 1.62E−05 Molar
Percent Growth (NCI-H226; Log10 Concentration −4.0): −90%
Percent Growth (NCI-H226; Log10 Concentration −8.0): 100%
Percent Growth (IGROV1): −65%
GI50 (IGROV1; IGROV1): 1.5 µM
TGI (IGROV1; IGROV1): 3.41E−06 Molar
Percent Growth (IGROV1; IGROV1, Log10 Concentration −4.0): −94%
Percent Growth (IGROV1; IGROV1, Log10 Concentration −6.0): 75%
Percent Growth (IGROV1; IGROV1, Log10 Concentration −7.0): 98%
Percent Growth (IGROV1; IGROV1, Log10 Concentration −8.0): 93%
CC50 (RPMI-8226): > 100 µM
GI50 (RPMI-8226): 1.86 µM
Percent Growth (RPMI-8226): −41%
TGI (RPMI-8226): 5.59E−06 Molar
GI50 (A549/ATCC): 1.98 µM
TGI (A549/ATCC): 6.58E−06 Molar
Percent Growth (A549/ATCC; Log10 Concentration −4.0): −100%
Percent Growth (A549/ATCC; Log10 Concentration −6.0): 78%
Percent Growth (A549/ATCC; Log10 Concentration −8.0): 96%
GI50 (HCT-15): 1.91 µM
Percent Growth (HCT-15): −91%
TGI (HCT-15): 4.89E−06 Molar
GI50 (KM12): 18.8 µM
Percent Growth (KM12): 93%
TGI (KM12): 3.50E−05 Molar
GI50 (SR): 0.852 µM
TGI (SR): 8.12E−06 Molar
Percent Growth (SR; Log10 Concentration −4.0): −7%
GI50 (K-562): 2.88 µM
TGI (K-562): 9.59E−06 Molar
Percent Growth (K-562; Log10 Concentration −4.0): −5%
GI50 (UACC-62): 1.97 µM
TGI (UACC-62): 3.49E−06 Molar
Percent Growth (UACC-62; Log10 Concentration −4.0): −99%
Percent Growth (UACC-62; Log10 Concentration −7.0): 104%
Percent Growth (UACC-62; Log10 Concentration −8.0): 100%
GI50 (CCRF-CEM): 1.26 µM
TGI (CCRF-CEM): 5.28E−06 Molar
Percent Growth (CCRF-CEM; Log10 Concentration −4.0): −13%
GI50 (HT29): 2.29 µM
TGI (HT29): 1.15E−05 Molar
Percent Growth (HT29; Log10 Concentration −4.0): −51%
Percent Growth (HT29; Log10 Concentration −8.0): 96%
GI50 (SNB-19): 3.53 µM
TGI (SNB-19): 1.38E−05 Molar
Percent Growth (SNB-19; Log10 Concentration −4.0): −75%
Percent Growth (LOX IMVI): 106%
GI50 (LOX IMVI; LOX IMVI): 2.43 µM
TGI (LOX IMVI; LOX IMVI): 6.93E−06 Molar
Percent Growth (LOX IMVI; LOX IMVI, Log10 Concentration −4.0): −70%
Percent Growth (LOX IMVI; LOX IMVI, Log10 Concentration −5.0): −17%
Percent Growth (LOX IMVI; LOX IMVI, Log10 Concentration −6.0): 92%
Percent Growth (LOX IMVI; LOX IMVI, Log10 Concentration −7.0): 101%
GI50 (SN12C): 3.1 µM
TGI (SN12C): 9.41E−06 Molar
Percent Growth (SN12C; Log10 Concentration −4.0): −77%
Percent Growth (SN12C; Log10 Concentration −5.0): −3%
Percent Growth (SN12C; Log10 Concentration −7.0): 102%
Percent Growth (TK-10): −31%
GI50 (TK-10; TK-10): 2.45 µM
TGI (TK-10; TK-10): 5.85E−06 Molar
Percent Growth (TK-10; TK-10, Log10 Concentration −4.0): −95%
Percent Growth (TK-10; TK-10, Log10 Concentration −6.0): 101%
Percent Growth (TK-10; TK-10, Log10 Concentration −7.0): 98%
Percent Growth (TK-10; TK-10, Log10 Concentration −8.0): 104%
Percent Growth (UO-31): 123%
GI50 (UO-31; UO-31): 3 µM
TGI (UO-31; UO-31): 6.38E−06 Molar
Percent Growth (UO-31; UO-31, Log10 Concentration −4.0): −97%
Percent Growth (UO-31; UO-31, Log10 Concentration −5.0): −30%
Percent Growth (UO-31; UO-31, Log10 Concentration −7.0): 102%
Percent Growth (UO-31; UO-31, Log10 Concentration −8.0): 105%
GI50 (MCF7): 1.03 µM
TGI (MCF7): 2.27E−06 Molar
Percent Growth (MCF7; Log10 Concentration −4.0): −100%
Percent Growth (MCF7; Log10 Concentration −8.0): 111%
Percent Growth (CAKI-1): 87% and 82%
GI50 (CAKI-1; CAKI-1): 2.3 µM
TGI (CAKI-1; CAKI-1): 7.19E−06 Molar
Percent Growth (CAKI-1; CAKI-1, Log10 Concentration −4.0): −95%
Percent Growth (CAKI-1; CAKI-1, Log10 Concentration −5.0): −14%
Percent Growth (CAKI-1; CAKI-1, Log10 Concentration −8.0): 95%
Percent Growth (MDA-N): −35%
GI50 (MDA-N; MDA-N): 2.28 µM
TGI (MDA-N; MDA-N): 5.47E−06 Molar
Percent Growth (MDA-N; MDA-N, Log10 Concentration −4.0): −87%
Percent Growth (MDA-N; MDA-N, Log10 Concentration −6.0): 97%
Percent Growth (MDA-N; MDA-N, Log10 Concentration −7.0): 103%
Percent Growth (MDA-N; MDA-N, Log10 Concentration −8.0): 100%
GI50 (RXF 393): 0.982 µM
TGI (RXF 393): 2.18E−06 Molar
Percent Growth (RXF 393; Log10 Concentration −4.0): −94%
Percent Growth (RXF 393; Log10 Concentration −5.0): −97%
Percent Growth (RXF 393; Log10 Concentration −6.0): 50%
Percent Growth (RXF 393; Log10 Concentration −7.0): 74%
Percent Growth (RXF 393; Log10 Concentration −8.0): 104%
GI50 (PC-3): 0.969 µM
TGI (PC-3): 3.99E−06 Molar
Percent Growth (PC-3; Log10 Concentration −4.0): −99%
Percent Growth (PC-3; Log10 Concentration −7.0): 98%
Percent Growth (PC-3; Log10 Concentration −8.0): 96%
GI50 (OVCAR-3): 2.13 µM
TGI (OVCAR-3): 4.69E−06 Molar
Percent Growth (OVCAR-3; Log10 Concentration −4.0): −99%
Percent Growth (OVCAR-3; Log10 Concentration −7.0): 102%
Percent Growth (OVCAR-3; Log10 Concentration −8.0): 94%
GI50 (HOP-62): 0.453 µM
TGI (HOP-62): 3.07E−06 Molar
Percent Growth (HOP-62; Log10 Concentration −4.0): −98%
